Reference: PMC3829359 (The Journal of Biological Chemistry, 2021)

What was measured:
[1] = target: T1, DC-SIGNR CRD (Homo sapiens, UniProt Q9H2X3); test: 1H-15N HSQC NMR titration, chemical shift perturbation, […] fit; assay type: binding; settings: pH 6.8, 37 °C, 20 mM HEPES-d18, 20 mM NaCl, 4 mM Ca2+, 0.7 mM protein
T1 sequence (Q9H2X3 262-399): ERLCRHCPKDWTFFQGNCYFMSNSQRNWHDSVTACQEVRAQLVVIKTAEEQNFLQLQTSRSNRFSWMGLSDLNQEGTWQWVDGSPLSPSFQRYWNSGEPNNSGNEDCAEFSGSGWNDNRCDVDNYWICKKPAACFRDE

[2] = target: T1, DC-SIGNR CRD; test: 1H-15N HSQC NMR titration, chemical shift perturbation; assay type: binding; settings: pH 6.8, 37 °C, 20 mM HEPES-d18, 20 mM NaCl, 4 mM Ca2+, 0.7 mM protein; intermediate exchange, severe line broadening, KD could not be estimated

Kd [1] | Structure (SMILES) | 1H-15N HSQC NMR titration, chemical shift perturbation [2]
2.04 ± 0.54 mM | OC[C@H]1O[C@H](OC[C@H]2OC(O)[C@@H](O)[C@@H](O[C@H]3O[C@H](CO)[C@@H](O)[C@H](O)[C@@H]3O)[C@@H]2O)[C@@H](O)[C@@H](O)[C@@H]1O (stereo partly drawn) [Man3] | 
2.2 ± 0.43 mM | OC[C@H]1O[C@H](OC[C@H]2O[C@H](OC[C@H]3OC(O)[C@@H](O)[C@@H](O[C@H]4O[C@H](CO)[C@@H](O)[C@H](O)[C@@H]4O)[C@@H]3O)[C@@H](O)[C@@H](O[C@H]3O[C@H](CO)[C@@H](O)[C@H](O)[C@@H]3O)[C@@H]2O)[C@@H](O)[C@@H](O)[C@@H]1O (stereo partly drawn) [Man5] | 
 | CC(=O)N[C@H]1C(O)O[C@H](CO)[C@@H](O[C@@H]2O[C@H](CO[C@H]3O[C@H](CO[C@H]4O[C@H](CO)[C@@H](O)[C@H](O)[C@@H]4O[C@H]4O[C@H](CO)[C@@H](O)[C@H](O)[C@@H]4O)[C@@H](O)[C@H](O[C@H]4O[C@H](CO)[C@@H](O)[C@H](O)[C@@H]4O[C@H]4O[C@H](CO)[C@@H](O)[C@H](O)[C@@H]4O)[C@@H]3O)[C@@H](O)[C@H](O[C@H]3O[C@H](CO)[C@@H](O)[C@H](O)[C@@H]3O[C@H]3O[C@H](CO)[C@@H](O)[C@H](O)[C@@H]3O[C@H]3O[C@H](CO)[C@@H](O)[C@H](O)[C@@H]3O)[C@@H]2O)[C@@H]1O (stereo partly drawn) [Man9GlcNAc] | binding of Man9GlcNAc caused substantial broadening and disappearance of a number of CRD peaks
